From ChEMBL document CHEMBL1909046, “DrugMatrix in vitro pharmacology data”

Assays:
Melanocortin receptor 5 = Melanocortin receptor 5 (Homo sapiens, UniProt P33032); format: cell membranes, HEK293, Membrane; also: in other assays of this panel Not Active means under 50% inhibition at 10 µM
[1] = target: T1, Cysteinyl leukotriene receptor 1 (Homo sapiens, UniProt Q9Y271); format: cell membranes, CHO-K1, Membrane; conditions: cho-k1; also: in other assays of this panel Not Active means under 50% inhibition at 10 µM
T1 sequence (Q9Y271 whole entry): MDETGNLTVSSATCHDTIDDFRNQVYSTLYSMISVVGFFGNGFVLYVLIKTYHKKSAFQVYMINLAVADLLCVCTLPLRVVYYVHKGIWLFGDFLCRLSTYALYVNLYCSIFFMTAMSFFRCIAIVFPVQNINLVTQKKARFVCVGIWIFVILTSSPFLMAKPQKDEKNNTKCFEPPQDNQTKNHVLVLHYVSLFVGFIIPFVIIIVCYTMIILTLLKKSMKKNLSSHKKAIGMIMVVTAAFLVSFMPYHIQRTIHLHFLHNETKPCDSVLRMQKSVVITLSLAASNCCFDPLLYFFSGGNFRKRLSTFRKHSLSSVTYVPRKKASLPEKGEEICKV

Leukotriene C4 synthase = target: T2, Leukotriene C4 synthase (Cavia porcellus, UniProt A6XA80); assay: biochemical; format: tissue-based, Lung;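 also: enzyme inhibition assay of leukotriene C4 synthase, using LTA4 as the substrate; in other assays of this panel Not Active means under 50% inhibition at 10 µM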
T2 sequence (A6XA80 whole entry): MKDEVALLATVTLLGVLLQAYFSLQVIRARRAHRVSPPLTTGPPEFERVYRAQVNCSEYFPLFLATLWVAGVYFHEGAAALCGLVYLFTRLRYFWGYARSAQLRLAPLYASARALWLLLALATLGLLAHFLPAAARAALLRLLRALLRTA

[2] = DRUGMATRIX: Sodium/nucleoside co-transporter radioligand binding (ligand: nitrobenzylthioinosine); format: cell membranes, Cavia porcellus, Dunkin-Hartley, Cerebral cortex, Membrane; conditions: Not Active = under 50% inhibition at 10 µM
Thromboxane-A synthase = target: T3, Thromboxane-A synthase (Homo sapiens, UniProt P24557); assay: biochemical; format: tissue-based, Platelet; conditions: platelet;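 also: enzyme inhibition assay with PGH2 supplied as substrate; in other assays of this panel Not Active means under 50% inhibition at 10 µM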
T3 sequence (P24557 whole entry): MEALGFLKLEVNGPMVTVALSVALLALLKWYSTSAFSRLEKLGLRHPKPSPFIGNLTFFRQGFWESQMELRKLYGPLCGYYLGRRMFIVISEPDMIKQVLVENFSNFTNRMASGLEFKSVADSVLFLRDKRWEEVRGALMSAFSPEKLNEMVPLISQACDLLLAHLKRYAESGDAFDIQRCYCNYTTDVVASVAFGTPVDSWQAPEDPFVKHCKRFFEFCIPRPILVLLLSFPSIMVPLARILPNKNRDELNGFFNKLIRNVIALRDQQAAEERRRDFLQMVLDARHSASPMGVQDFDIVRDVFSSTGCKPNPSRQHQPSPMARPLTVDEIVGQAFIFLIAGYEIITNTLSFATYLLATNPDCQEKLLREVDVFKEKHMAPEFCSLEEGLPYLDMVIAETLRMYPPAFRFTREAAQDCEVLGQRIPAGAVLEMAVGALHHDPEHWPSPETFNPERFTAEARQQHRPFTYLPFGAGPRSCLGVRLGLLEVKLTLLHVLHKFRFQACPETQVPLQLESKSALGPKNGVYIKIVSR

Adenosine receptor A1 = target: T4, Adenosine receptor A1 (Homo sapiens, UniProt P30542); format: cell membranes, CHO, Membrane; conditions: cho
T4 sequence (P30542 whole entry): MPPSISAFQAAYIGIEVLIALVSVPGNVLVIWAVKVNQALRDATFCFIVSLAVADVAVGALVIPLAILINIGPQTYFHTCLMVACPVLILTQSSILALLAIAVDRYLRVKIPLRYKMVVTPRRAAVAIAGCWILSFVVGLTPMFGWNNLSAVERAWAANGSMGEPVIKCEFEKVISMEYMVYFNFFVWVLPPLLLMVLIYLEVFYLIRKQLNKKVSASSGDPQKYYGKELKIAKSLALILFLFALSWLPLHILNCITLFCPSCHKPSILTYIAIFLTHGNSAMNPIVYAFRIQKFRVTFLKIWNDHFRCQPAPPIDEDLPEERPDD

Melanocortin receptor 5, sequence (P33032 whole entry): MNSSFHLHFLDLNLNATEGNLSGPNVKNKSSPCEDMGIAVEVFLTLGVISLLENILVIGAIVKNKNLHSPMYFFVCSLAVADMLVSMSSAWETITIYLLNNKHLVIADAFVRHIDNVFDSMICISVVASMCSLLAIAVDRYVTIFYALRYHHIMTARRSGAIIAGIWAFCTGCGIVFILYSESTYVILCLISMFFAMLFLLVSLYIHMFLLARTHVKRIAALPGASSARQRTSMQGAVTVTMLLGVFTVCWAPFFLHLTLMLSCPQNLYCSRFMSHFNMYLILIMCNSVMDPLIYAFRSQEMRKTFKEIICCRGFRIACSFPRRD

Row | Compound | IC50 (Melanocortin receptor 5; hek293) | IC50 [1] | IC50 (Leukotriene C4 synthase) | IC50 [2] | Ki [2] | IC50 (Thromboxane-A synthase) | IC50 (Adenosine receptor A1) | Ki (Melanocortin receptor 5; hek293) | Ki [1] | Ki (Leukotriene C4 synthase) | Ki (Thromboxane-A synthase) | Ki (Adenosine receptor A1) | IC50 (Melanocortin receptor 5; read-out: IC50) | Ki (Melanocortin receptor 5; read-out: Ki)
1 | Nc1nc(N)c2nc(CNc3ccc(C(=O)N[C@@H](CCC(=O)O)C(=O)O)cc3)cnc2n1 [AMINOPTERIN] | Not Active | Not Active | Not Active | Not Active | Not Active | Not Active | Not Active | – | – | – | – | – | – | –
2 | Nc1ccc(Cc2ccc(N)cc2)cc1 | Not Active | Not Active | Not Active | Not Active | Not Active | Not Active | Not Active | – | – | – | – | – | – | –
3 | COc1ccccc1OCCNCC(O)COc1cccc2[nH]c3ccccc3c12 (stereo not given) [CARVEDILOL] | Not Active | Not Active | Not Active | Not Active | Not Active | Not Active | Not Active | – | – | – | – | – | – | –
4 | CCN1CCN(c2cc3c(cc2F)c(=O)c(C(=O)O)cn3C2CC2)CC1 [ENROFLOXACIN] | Not Active | Not Active | Not Active | Not Active | Not Active | Not Active | Not Active | – | – | – | – | – | – | –
5 | CC(C)Cc1ccc([C@H](C)C(=O)O)cc1 [DEXIBUPROFEN] | Not Active | Not Active | Not Active | Not Active | Not Active | Not Active | Not Active | – | – | – | – | – | – | –
6 | O=C(O)CNCP(=O)(O)O [GLYPHOSATE] | Not Active | Not Active | Not Active | Not Active | Not Active | Not Active | Not Active | – | – | – | – | – | – | –
7 | CO[C@H]1O[C@@H]2O[C@@]3(C)CC[C@H]4[C@H](C)CC[C@@H]([C@H]1C)[C@@]24OO3 | Not Active | Not Active | Not Active | Not Active | Not Active | Not Active | Not Active | – | – | – | – | – | – | –
8 | Nc1ccc(C(=O)O)c(O)c1 [AMINOSALICYLIC ACID] | Not Active | Not Active | Not Active | Not Active | Not Active | Not Active | Not Active | – | – | – | – | – | – | –
9 | Nc1nc(F)nc2c1ncn2[C@@H]1O[C@H](CO)[C@@H](O)[C@@H]1O [FLUDARABINE] | Not Active | Not Active | Not Active | Not Active | Not Active | Not Active | Not Active | – | – | – | – | – | – | –
10 | CHROMIC CHLORIDE | Not Active | Not Active | Not Active | Not Active | Not Active | Not Active | Not Active | Not Active | Not Active | Not Active | Not Active | Not Active | – | –
11 | O=C(O)CO [GLYCOLIC ACID] | Not Active | Not Active | Not Active | Not Active | Not Active | Not Active | Not Active | – | – | – | – | – | – | –
12 | COC(=O)C[C@](O)(CCC(C)(C)O)C(=O)O[C@@H]1C(OC)=C[C@]23CCCN2CCc2cc4c(cc2[C@H]13)OCO4 [HARRINGTONINE] | Not Active | Not Active | Not Active | Not Active | Not Active | Not Active | Not Active | – | – | – | – | – | – | –
13 | CC12CCC(CC1=O)C2(C)C (stereo not given) [CAMPHOR] | Not Active | Not Active | Not Active | Not Active | Not Active | Not Active | Not Active | – | – | – | – | – | – | –
14 | CCN1CCN(C(=O)N[C@@H](C(=O)N[C@@H]2C(=O)N3[C@@H]2SC(C)(C)[C@@H]3C(=O)O)c2ccccc2)C(=O)C1=O [PIPERACILLIN] | Not Active | Not Active | Not Active | Not Active | Not Active | Not Active | Not Active | – | – | – | – | – | – | –
15 | C=CCO [ALLYL ALCOHOL] | Not Active | Not Active | Not Active | Not Active | Not Active | Not Active | Not Active | – | – | – | – | – | – | –
16 | O=C(O)CCc1nc(-c2ccccc2)c(-c2ccccc2)o1 [OXAPROZIN] | Not Active | Not Active | Not Active | Not Active | Not Active | Not Active | Not Active | – | – | – | – | – | – | –
17 | c1ccc2sc(SSc3nc4ccccc4s3)nc2c1 [BENZOTHIAZYL DISULFIDE] | – | Not Active | Not Active | Not Active | Not Active | Not Active | Not Active | – | – | – | – | – | 3.9 µM | 3.7 µM
18 | O=C1CN(/N=C/c2ccc([N+](=O)[O-])o2)C(=O)N1 [NITROFURANTOIN] | Not Active | Not Active | Not Active | Not Active | Not Active | Not Active | Not Active | – | – | – | – | – | – | –
19 | NCC(CC(=O)O)c1ccc(Cl)cc1 (stereo not given) [BACLOFEN] | Not Active | Not Active | Not Active | Not Active | Not Active | Not Active | Not Active | – | – | – | – | – | – | –
20 | OC[C@H]1O[C@@H]2O[C@H]3[C@H](O)[C@@H](O)[C@@H](O[C@H]4[C@H](O)[C@@H](O)[C@@H](O[C@H]5[C@H](O)[C@@H](O)[C@@H](O[C@H]6[C@H](O)[C@@H](O)[C@@H](O[C@H]7[C@H](O)[C@@H](O)[C@@H](O[C@H]8[C@H](O)[C@@H](O)[C@@H](O[C@H]1[C@H](O)[C@H]2O)O[C@@H]8CO)O[C@@H]7CO)O[C@@H]6CO)O[C@@H]5CO)O[C@@H]4CO)O[C@@H]3CO [BETADEX] | Not Active | Not Active | Not Active | Not Active | Not Active | Not Active | Not Active | – | – | – | – | – | – | –
21 | CC(C)NCC(O)COc1ccc(CC(N)=O)cc1 (stereo not given) [ATENOLOL] | Not Active | Not Active | Not Active | Not Active | Not Active | Not Active | Not Active | – | – | – | – | – | – | –
22 | Cl.NC[C@H]1CC[C@H](C(=O)Oc2ccc(CCC(=O)O)cc2)CC1 [CETRAXATE HYDROCHLORIDE] | Not Active | Not Active | Not Active | Not Active | Not Active | Not Active | Not Active | – | – | – | – | – | – | –
23 | O=C(NCCN1CCOCC1)c1ccc(Cl)cc1 [MOCLOBEMIDE] | Not Active | Not Active | Not Active | Not Active | Not Active | Not Active | Not Active | – | – | – | – | – | – | –
24 | CARBOXYMETHYLCELLULOSE | Not Active | Not Active | Not Active | Not Active | Not Active | Not Active | Not Active | Not Active | Not Active | Not Active | Not Active | Not Active | – | –
25 | C[C@@H]1[C@H](O)[C@@H](C)/C=C/C=C/C=C/C=C/C=C/C=C/C=C/[C@H](O[C@@H]2O[C@H](C)[C@@H](O)[C@H](N)[C@@H]2O)C[C@@H]2O[C@](O)(C[C@@H](O)C[C@@H](O)[C@H](O)CC[C@@H](O)C[C@@H](O)CC(=O)O[C@H]1C)C[C@H](O)[C@H]2C(=O)O [AMPHOTERICIN B] | Not Active | Not Active | Not Active | Not Active | Not Active | Not Active | Not Active | – | – | – | – | – | – | –
26 | CCN(CCO)CCCC(C)Nc1ccnc2cc(Cl)ccc12 (stereo not given) [HYDROXYCHLOROQUINE] | Not Active | Not Active | Not Active | Not Active | Not Active | Not Active | Not Active | – | – | – | – | – | – | –
27 | CCC1(c2ccccc2)C(=O)NC(=O)NC1=O [PHENOBARBITAL] | Not Active | Not Active | Not Active | Not Active | Not Active | Not Active | Not Active | – | – | – | – | – | – | –
